Where two headings read alike, the source gives them in different places. Values belong to the molecule of their own block, whether it stands above or below them. Residues, ends and D or L forms follow the SMILES beside them.
Tests used:
[1] = Ocular tissue distribution at equimolar concentration after eye dropping or intravitreal injection, ELISA (Example 5); format: in vivo, C57BL/6J mice; settings: for active molecules that can reach the RPE/choroid complex: 5 µL per eye; for active molecules that can reach the RPE/choroid complex / maintenance time at the RPE/choroid complex: equimolar concentration
Description: Experimental process: All the mice in the eye drop groups were administered bilateral eye drops 1 time, with 5 µL of the corresponding drug solution in each eye. At the 6 time points of 0 h, 1 h, 3 h, 7 h, 12 h, and 24 h after the completion of administration, the mice in the corresponding groups were respectively subjected to eyeball removal and blood collection, the collected whole blood was immediately centrifuged at 6,000 rpm for 5 minutes, and then, a supernatant was sucked and stored as a sample to be tested. Additionally, 3 tissue sites, namely the vitreous body, the retina, and the RPE/choroid complex, were isolated from an eyeball under a stereomicroscope, into which a phosphate buffer solution (PBS) was added at 1:10 for dilution, followed by grinding and centrifugation at 12,000 rpm for 5 minutes. A supernatant was sucked to serve as a sample to be tested. Subsequently, the concentration of the fusion polypeptide AJ007 or the multifunctional fusion polypeptide VI (HM-1) in each tissue was detected by an enzyme-linked immunosorbent assay (ELISA) method. The ELISA method is as follows: • (1) coating: diluting HM-1 with a certain concentration of a coating solution (CBS) to 1 µg/mL, adding the diluted solution into a microplate at 100 µL per well, and standing overnight at 4°C; • (2) plate washing: discarding the coating solution, adding 265 µL of a PBST washing solution to each well, washing 3 times for 3 minutes each time, and beating to dryness; • (3) blocking: adding 200 µL of a 1% BSA blocking solution to each well, placing the solution in a water bath at 37°C for 1.5 hours, repeating the plate washing process, and beating to dryness; • (4) addition of a sample to be tested and an antibody: first, adding 100 µL of the sample to be tested to a microplate, then adding 100 µL of an HM-1 monoclonal antibody dilution solution at a certain concentration, setting 2-3 replicate wells, shaking uniformly on a shaker at 37°C for 2 minutes, then transferring the mixture to a water bath pot for placement at 37°C for 2 hours, taking out the mixture after a thorough reaction, and repeating the plate washing process; • (5) reaction with an enzyme-labeled secondary antibody: adding a certain concentration of HRP enzyme-labeled goat anti-mouse IgG at 100 µL per well for incubation at 37°C for 1.5 hours, repeating the plate washing process, and beating to dryness; • (6) addition of a substrate: adding 100 µL of a TMB substrate chromogenic solution to each well for color development at room temperature in the dark for a certain period of time; • (7) termination: adding 50 µL of a termination solution to each well to terminate the reaction; and • (8) detection: reading an OD value of each well at 450 nm using a microplate reader.
This example provides an ocular tissue distribution comparison experiment of the polypeptide eye drops (AJ007 eye drops) in Example 2 with an equimolar concentration of the multifunctional fusion polypeptide VI (HM-1), a multifunctional fusion polypeptide VI preparation (HM-1 preparation, with a polypeptide being HM-1 and a formulation of other auxiliary materials being the same as the AJ007 eye drops), a fusion polypeptide AJ007 preparation (TAT-HM-1, with a polypeptide being AJ007 and pure water as a vehicle) after eye dropping, and the multifunctional fusion polypeptide VI (HM-1) after intravitreal injection, which is specifically described below.
Animal grouping: […] C57BL/6J mice were randomly divided into a total of 7 time point groups, including 0 h, 10 min, 1 h, 3 h, 7 h, 12 h, and 24 h, with 2 mice in each group.
Experimental process: All the mice in the eye drop administration groups were administered bilateral eye drops 1 time, with 5 µL of a corresponding drug solution dropped into each eye, while 5 µL of a corresponding drug solution was injected into both eyes in the HM-1 intravitreal injection group. […]

[2] = cited from earlier work

Molecule: C[C@H](NC(=O)CNC(=O)[C@H](CCCNC(=N)N)NC(=O)[C@H](CCCNC(=N)N)NC(=O)[C@H](CCCNC(=N)N)NC(=O)[C@H](CCCNC(=N)N)NC(=O)[C@H](CCC(N)=O)NC(=O)[C@H](CCCNC(=N)N)NC(=O)[C@H](CCCNC(=N)N)NC(=O)[C@H](CCCCN)NC(=O)[C@H](CCCCN)NC(=O)[C@H](CCCNC(=N)N)NC(=O)CNC(=O)[C@@H](N)Cc1ccc(O)cc1)C(=O)N[C@@H](CC(=O)O)C(=O)N[C@@H](CCCNC(=N)N)C(=O)N[C@@H](C)C(=O)NCC(=O)NCC(=O)NCC(=O)NCC(=O)N[C@@H](CCCNC(=N)N)C(=O)NCC(=O)N[C@@H](CC(=O)O)C(=O)O [AJ007] (H-YGRKKRRQRRRRGADRAGGGGRGD-OH)
ability to penetrate through the posterior segment of ocular, increase compared with HM-1 ([1]; eye dropping): approximately 600 times
active molecules that can reach the RPE/choroid complex ([1]; single eye dropping): 6291.38 ng/mL
active molecules that can reach the RPE/choroid complex ([1]; single eye dropping, listed as TAT-HM-1): 843.28 ng/mL
maintenance time at the RPE/choroid complex ([1]; single eye dropping): the maintenance time is also shorter

active molecules that can reach the RPE/choroid complex ([1]; intravitreal injection): approximately 5729.7 ng/mL
maintenance time at the RPE/choroid complex ([1]; intravitreal injection): the maintenance time is shorter
active molecules that can reach the RPE/choroid complex ([1]; single eye dropping): less than 10 ng/mL
maintenance time at the RPE/choroid complex ([1]; single eye dropping): very short
Molecule: C[C@H](NC(=O)CNC(=O)[C@@H](N)CCCNC(=N)N)C(=O)N[C@@H](CC(=O)O)C(=O)N[C@@H](CCCNC(=N)N)C(=O)N[C@@H](C)C(=O)NCC(=O)NCC(=O)NCC(=O)NCC(=O)N[C@@H](CCCNC(=N)N)C(=O)NCC(=O)N[C@@H](CC(=O)O)C(=O)O [HM-1, Arg-Gly-Ala-Asp-Arg-Ala-Gly-Gly-Gly-Gly-Arg-Gly-Asp] (H-RGADRAGGGGRGD-OH)

Molecule: axitinib
concentration reaching the retina after eye dropping, increase ([2]; in vivo): 5-10 times

Molecule: bevacizumab
ability to penetrate through and enter the posterior segment of the eye after eye dropping, increase ([2]; after linking to a cell-penetrating peptide CPP): approximately 10 times

Molecule: ranibizumab
concentration reaching the retina after eye dropping, increase ([2]; after linking to a cell-penetrating peptide, patents CN114073774A, CN114668717A): approximately 100 times

Source: EP4725551A1, “FUSION POLYPEPTIDE AJ007 AND USE THEREOF” (Nanjing Anji Biotechnology Co., Ltd., priority 2023, dated 2026)
